Data on two compounds can be found in paper PMC9693223 (Molecules, 2022).

Where “and” joins values, the source holds several entries; their conditions need not be identical. Equal values may be shown once.

For assay [1], the system named is NT1 transport activity. Further details: method as in PMID 28453984. To be noted: NT1 transport activity in L. mexicana; ref [36]; cited from earlier work.
The target of assay [2] is T1, TcrNT2 (Trypanosoma cruzi, UniProt Q4DHG0). Nature of the assay: Transport of [^3H]-thymidine by TcrNT2 expressed in L. mexicana Cas9^ΔNT1 (Km, inhibition). Format: cell-based. To be noted: for ΔG° (Gibbs free energy of interaction): calculated from Km or Ki at 25 °C. The gist of the method: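 L. mexicana Cas9ΔNT1 expressing TcrNT2, 10^7 cells per point, incubated with [3H]-thymidine for a set time, stopped with ice-cold buffer containing excess unlabeled permeant and oil-spin separation. Km by Michaelis-Menten fit; IC50 by sigmoid fit converted to Ki via Cheng-Prusoff, with ΔG° = −RTln(Ki).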
T1 sequence (Q4DHG0 entry or part of it): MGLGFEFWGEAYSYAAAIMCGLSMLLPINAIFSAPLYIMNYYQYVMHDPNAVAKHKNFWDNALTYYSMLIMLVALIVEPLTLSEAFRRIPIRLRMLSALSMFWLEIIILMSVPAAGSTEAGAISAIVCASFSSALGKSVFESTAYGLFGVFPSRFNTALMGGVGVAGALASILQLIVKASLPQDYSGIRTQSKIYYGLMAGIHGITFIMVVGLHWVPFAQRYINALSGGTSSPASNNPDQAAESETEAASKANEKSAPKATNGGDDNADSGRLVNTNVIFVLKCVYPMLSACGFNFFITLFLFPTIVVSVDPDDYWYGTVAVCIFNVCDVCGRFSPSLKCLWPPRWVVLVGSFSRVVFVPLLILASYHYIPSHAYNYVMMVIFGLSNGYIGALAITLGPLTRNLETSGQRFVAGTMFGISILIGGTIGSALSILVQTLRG

The test system of assay [3] is L. mexicana Cas9^ΔNT1 promastigotes. Nature of the assay: Transport of [^3H]-thymidine by L. mexicana Cas9^ΔNT1 promastigotes. To be noted: 0.05 µM [^3H]-thymidine, Cas9^ΔNT1 cells, over 180 s. The assay is classed as cell-based, Leishmania mexicana. The protocol: It is well documented that the NT1 transport activity is responsible for the uptake of adenosine and of pyrimidine nucleosides in Leishmania spp.. […] We thus assessed the uptake of these two nucleosides in Cas9^ΔNT1. […] In contrast, the transport of 0.1 µM of [^3H]-adenosine by L. mexicana Cas9^ΔNT1 promastigotes was virtually abolished and became statistically identical to the uptake in the presence of 1 mM unlabeled adenosine (p > 0.05).
Figure 1 [^3H]-Adenosine and [^3H]-Thymidine transport by L. mexicana Cas9 and L. mexicana Cas9^ΔNT1. (A). Transport of 0.1 µM of [^3H]-adenosine by L. mexicana Cas9 and L. mexicana Cas9^ΔNT1 was measured over 20 s in the presence or absence of 1 mM unlabeled adenosine. (B). Transport of 0.05 μM of [^3H]-thymidine by L. mexicana Cas9 and L. mexicana Cas9^ΔNT1 was measured over 180 s in the presence or absence of 1 mM unlabeled thymidine, respectively. Symbols represent the average of triplicate determinations in a single representative experiment and error bars represent ± SEM.
Transport assays were conducted with radiolabeled nucleosides [methyl-^3H]-thymidine (20 Ci/mmol; PerkinElmer (Waltham, MA, USA)) and [2,8-^3H]-adenosine (40 Ci/mmol; American Radiolabeled Chemicals (ARC, St-Louis, MO, USA)). Cells were harvested from mid-log phase cultures by centrifugation and washed into an assay buffer (AB) as described, at a density of 1 × 10^8 cells mL^−1. […]

Assay [4] addresses T1, TcrNT2. To be noted: TcrNT2 expressed in T. brucei; ref [30]; read-out: Km of thymidine uptake by TcrNT2; cited from earlier work.
In assay [5] the test system is L. mexicana Cas9 promastigotes. Nature of the assay: Alamar blue drug sensitivity assay, L. mexicana Cas9 promastigotes. The assay is classed as cell-based, Leishmania mexicana. To be noted: Leishmania mexicana, 120 h, 72 h + 48 h resazurin, at least 3 independent determinations, read-out: EC50 (µM) AVG ± SEM, Cas9. The source says: We used L. mexicana promastigotes of the Cas9 strain developed by Beneke at al. to generate the ΔNT1 strain, and from there the Cas9^ΔNT1+TcrNT2 (see below); The original Cas9 strain was generously donated by Prof. Eva Gluenz (University of Bern, Switzerland). All strains in standard HOMEM (GIBCO, Life Technologies, Paisley, UK) supplemented with 10% heat-inactivated fetal bovine serum (FBS; PAA Laboratories, Linz, Austria) and 1% of a penicillin–streptomycin solution (10,000 U mL^−1 each; Life Technologies) at 25 °C, as described.
The Alamar blue assay (resazurin sodium salt) was used to determine the drug sensitivity of the L. mexicana promastigotes in vitro. The assay is based on the reduction of resazurin sodium salt (blue and non-fluorescent) to resorufin (pink color and fluorescent) by live cells. HOMEM medium with 10% FBS (100 μL) was added to all wells of a white 96-well plate apart from the first well. 200 μL of a known concentration of test compounds was diluted in HOMEM medium and placed in the first well. Compounds were tested in one plate and every compound was diluted over two rows (23 concentrations), leaving the last well of every dilution as a negative control having 100 μL HOMEM medium. Next, 100 μL of L. mexicana culture at a density of 2 × 10^6 cells mL^−1 was added into every well in the plate and incubated for 72 h at a temperature of 25 °C after which resazurin sodium salt (Sigma) (20 μL of a solution of 12.5 mg in 100 mL PBS) was added and the plate was incubated under the same conditions for a further 48 h. Fluorescence was measured in a FLUOstar OPTIMA plate reader (BMG Labtech, Germany), at a wavelength of 544 nm for excitation and 620 nm for emission. The EC50 values and fluorescence data were determined and plotted by the GraphPad Prism 8 Software using an equation for a sigmoid curve with variable slope. Pentamidine was used as positive control and every experiment was performed 3–4 times independently.
On the technique in general: Alamar Blue is a resazurin reagent that responds to reducing activity.

Assay [6] deals with P1 transporter. To be noted: T. brucei P1; ref [16],[17]; cited from earlier work.
In assay [7] the target is P2/TbAT1 aminopurine transporter. To be noted: T. brucei P2; ref [16],[17]; cited from earlier work.

Turning to `Cc1cn([C@H]2C[C@H](O)[C@@H](CO)O2)c(=O)[nH]c1=O` [thymidine], the Km in assay [1] was 11.2 ± 2.4 µM; in assay [4], ~0.2 µM and 0.223 µM and 0.22 µM. For the same compound, the “ΔG° (Gibbs free energy of interaction)” value in assay [2] is -37.5 kJ/mol. In assay [3], the “rate of [^3H]-thymidine transport” value is 0.00004 ± 0.000006 pmol(10^7 cells)^−1 s^−1.
For `Nc1ncnc2c1c(Br)cn2[C@@H]1O[C@H](CO)[C@@H](O)[C@H]1O` [TH1003, 7-bromo-tubercidin], the Ki is 784 ± 41 µM in assay [2], below 5 µM in assay [6] and below 5 µM in assay [7]. The “ΔG° (Gibbs free energy of interaction)” value in assay [2] was -19.8 kJ/mol. In addition, the EC50 in assay [5] is 0.16 ± 0.018 µM.

For orientation: Km means the concentration of substrate that gives half-maximal velocity. For orientation: Ki means a dissociation constant, usually derived from enzyme kinetics or from competition with a known ligand. In general, EC50 refers to the concentration that produces a half-maximal response.
